The numbers were not newly measured in US20230149268A1, “MULTI-PHASE COSMETIC COMPOSITION COMPRISING AT LEAST TWO IMMISCIBLE OILY PHASES” (CHANEL PARFUMS BEAUTE, priority 2020, published 2023), which cites them from elsewhere.

Molecules are shown by their SMILES.

For this data set the following is noted: Table 1, known values, fatty acids.

Turning to `CCCCCCCCCCCCCCCCCCCC(=O)O` [Arachidic acid C20:0, Arachidic acid], the δd is 16.1, the δh was 4.7 and the δp is recorded as 2.7.

Regarding `CCCCCCCCCCCCCCCCCCCCCC(=O)O` [Behenic acid C22:0, Behenic acid], the δd is listed as 16.2, the δh is 4.3 and the δp was 2.3.

As to `CCCCCCCCCC(=O)O` [Capric acid C10:0, Capric acid], the δd is recorded as 16.3, the δh is 8.6 and the δp was 4.2.

`CCCCCCCC(=O)O` [Caprylic acid C8:0, Caprylic acid]: the δd was 16.3, the δh is 10.1 and the δp is on record as 5.2.

On to `CCCCCCCC/C=C\CCCCCCCCCCCC(=O)O` [Erucic acid C22:1, Erucic acid], for which the δd is 16.3, the δh was 4.5 and the δp is 2.6.

With `CCCCCCCCCC/C=C\CCCCCCCC(=O)O` [Gadoleic acid C20:1, Gadoleic acid], the δd is recorded as 16.4, the δh is 5.1 and the δp was 2.9.

With `CCCCCCCCCCCC(=O)O` [Lauric acid C12:0, Lauric acid], the δd is listed as 16.3, the δh is listed as 7.5 and the δp is listed as 4.

With `CCCCCCCCCCCCCCCCCCCCCCCC(=O)O` [Lignoceric acid C24:0, Lignoceric acid], the δd was 16.1, the δh was 3.9 and the δp is 2.4.

On to `CCCCC/C=C\C/C=C\CCCCCCCC(=O)O` [Linoleic acid C18:2, Linoleic acid], for which the δd was 16.7, the δh is on record as 6.1 and the δp is listed as 3.1.

For the molecule `CCCCCCCCCCCCCCCCC(=O)O` [Margaric acid C17:0, Margaric acid], the δd is reported as 16.2, the δh was 5.4 and the δp was 2.8.

Take `CCCCCCCCCCCCCC(=O)O` [Myristic acid C14:0, Myristic acid]: the δd was 16.3, the δh was 6.6 and the δp is listed as 3.3.

`CCCCCCCC/C=C\CCCCCCCC(=O)O` [Oleic acid C18:1, Oleic acid]: the δd is reported as 16.4, the δh is recorded as 5.5 and the δp is recorded as 3.

`CCCCCCCCCCCCCCCC(=O)O` [Palmitic acid C16:0, Palmitic acid]: the δd is 16.2, the δh is 5.8 and the δp is recorded as 3.3.

As to `CCCCCC/C=C\CCCCCCCC(=O)O` [Palmitoleic acid C16:1, Palmitoleic acid], the δd was 16.5, the δh was 6.3 and the δp was 3.4.

As for `CCCCCC[C@@H](O)C/C=C\CCCCCCCC(=O)O` [Ricinoleic acid], the δd is recorded as 16.5, the δh is 8.2 and the δp is listed as 4.4.

`CCCCCCCCCCCCCCCCCC(=O)O` [Stearic acid C18:0, Stearic acid]: the δd is given as 16.2, the δh is recorded as 5.2 and the δp was 2.8.
